{"source": "patent US20090062258A1", "about": "“FUSED PYRIMIDINE DERIVATIVE AND USE THEREOF” (Takeda Pharmaceutical Company Limited, priority 2005, published 2009)", "target": "T1, human GnRH receptor (Homo sapiens, UniProt P30968)", "T1 construct": "expressed in transfected cells; host or cells: CHO (Chinese Hamster Ovary) cells; membrane fraction", "T1 sequence (P30968 1-328)": "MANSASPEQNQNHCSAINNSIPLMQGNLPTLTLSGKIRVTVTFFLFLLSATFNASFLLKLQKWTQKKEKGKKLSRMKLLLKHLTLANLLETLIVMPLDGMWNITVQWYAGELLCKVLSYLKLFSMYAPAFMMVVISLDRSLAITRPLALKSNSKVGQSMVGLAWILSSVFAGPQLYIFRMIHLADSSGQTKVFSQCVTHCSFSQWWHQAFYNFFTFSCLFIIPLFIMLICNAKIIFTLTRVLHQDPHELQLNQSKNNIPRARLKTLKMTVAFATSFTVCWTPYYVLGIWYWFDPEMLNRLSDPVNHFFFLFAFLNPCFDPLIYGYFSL", "assay": "125I-leuprorelin binding assay (binding inhibitory rate)", "conditions": "10 nM of the testing compound; 800 pM 125I-leuprorelin; 10 μg human GnRH receptor membrane fraction (CHO cells); room temperature 1 hour; read-out: Binding inhibitory ratio (%)", "experimental": "10 μL of a 3×10^−4 M aqueous solution of leuprorelin and 10 μL of 0.01 mg/mL lactoperoxidase were placed in a tube, and 10 μL (37 MBq) of a Na^125I solution was added thereto. After stirring, 10 μL of 0.001% H2O2 was added to allow the mixture to undergo a reaction at room temperature for 20 minutes. 700 μL of a 0.05% TFA solution was added to stop the reaction, and purification by reversed phase HPLC was carried out. The conditions for HPLC are described below. ^125I-leuprorelin was eluted at a retention time of 26 to 27 minutes.\nHuman GnRH receptor-expressing CHO cells were cultured until the cells were reached a 90% confluent state in a T-150 flask. The cells were separated using 0.02% EDTA-PBS and were centrifuged at 500×g for 5 minutes. A homogenate buffer for cells (10 mM NaHCO3, 1 mM EDTA, 1 mM PMSF, 0.5 μg/mL Pepstatin, 2 μg/mL Leupeptin, pH 7.4) was added to the cell pellet, and the mixture was homogenized with a Polytron homogenizer. After centrifugation of the homogenate at 4° C. and at 1000×g for 10 minutes, the supernatant was placed in an ultracentrifuge tube and was centrifuged at 4° C. and at 49,300×g for 1 hour to obtain a precipitate of a membrane fraction. This precipitate was suspended in an assay buffer (50 mM Tris-HCl, 150 mM NaCl, 5 mM EDTA, pH 7.4) and then dispensed and stored at −80° C., so that the suspension can be thawed every time it is taken for use.\nA ^125I-leuprorelin binding assay was carried out using 200 μL of an assay buffer containing 10 μg of human GnRH receptor membrane fraction, 800 pM of ^125I-leuprorelin and 10 nM of the testing compound.\nThe non-specific binding radioactivity was measured in the presence of 1 μM of non-labeled leuprorelin. After leaving the mixture to stand at room temperature for 1 hour, ^125I-leuprorelin was captured on a GF/C filter (PerkinElmer, Inc.), and the filter was washed with ice-cold 50 mM Tris-HCl (pH 7.4) using a cell harvester. After drying the filter, a liquid scintillation cocktail for microplate was added, and the membrane-bound radioactivity was measured using a TopCount.\nThe value of (TB-SB)/(TB-NSB)×100 (SB: radioactivity upon addition of the compound, TB: maximum binding radioactivity, NSB: non-specific binding radioactivity) was calculated to determine the binding inhibitory rate in the presence of 10 nM of each testing material.", "data": [{"smiles": "COC(=O)c1scc2[nH]c(=O)n(-c3cc(C(=O)N(c4cccc(C#N)c4Cl)C4CC4)sc3Cl)c(=O)c12", "note": "[Example 38, Methyl 3-(2-chloro-5-{[(2-chloro-3-cyanophenyl)(cyclopropyl)amino]carbonyl}-3-thienyl)-2,4-dioxo-1,2,3,4-tetrahydrothieno[3,4-d]pyrimidine-5-carboxylate]", "values": [{"measurement": "inhibition at 0.01 µM", "result": 95, "unit": "%"}]}, {"smiles": "CC(C)(C)OC(=O)CNC(=O)c1scc2[nH]c(=O)n(-c3cccc(S(=O)(=O)N4CCCc5ccccc54)c3)c(=O)c12", "note": "[Example 7 (1), N-({3-[3-(3,4-Dihydroquinolin-1(2H)-ylsulfonyl)phenyl]-2,4-dioxo-1,2,3,4-tetrahydrothieno[3,4-d]pyrimidin-5-yl}carbonyl) glycine tert-butyl ester]", "values": [{"measurement": "inhibition at 0.01 µM", "result": 92, "unit": "%"}]}, {"smiles": "O=c1[nH]c2csc(CO)c2c(=O)n1-c1cc(S(=O)(=O)N2CCCc3ccccc32)cs1", "note": "[Example 31, 3-[4-(3,4-Dihydroquinolin-1(2H)-ylsulfonyl)-2-thienyl]-5-(hydroxymethyl)thieno[3,4-d]pyrimidin-2,4(1H,3H)-dione]", "values": [{"measurement": "inhibition at 0.01 µM", "result": 100, "unit": "%"}]}, {"smiles": "CC(O)c1scc2[nH]c(=O)n(-c3cccc(S(=O)(=O)N4CCCc5ccccc54)c3)c(=O)c12", "note": "(stereo not drawn) [Example 24, 3-[3-(3,4-Dihydroquinolin-1(2H)-ylsulfonyl)phenyl]-5-(1-hydroxyethyl)thieno[3,4-d]pyrimidin-2,4(1H,3H)-dione]", "values": [{"measurement": "inhibition at 0.01 µM", "result": 95, "unit": "%"}]}, {"smiles": "N#Cc1cccc(N(C(=O)c2cc(-n3c(=O)[nH]c4csc(C(N)=O)c4c3=O)c(Cl)s2)C2CC2)c1Cl", "note": "[Example 41, 3-(2-Chloro-5-{[(2-chloro-3-cyanophenyl)(cyclopropyl)amino]carbonyl}-3-thienyl)-2,4-dioxo-1,2,3,4-tetrahydrothieno[3,4-d]pyrimidine-5-carboxamide]", "values": [{"measurement": "inhibition at 0.01 µM", "result": 100, "unit": "%"}]}, {"smiles": "N#Cc1cccc(N(C(=O)c2cc(-n3c(=O)[nH]c4csc(CO)c4c3=O)c(Cl)s2)C2CC2)c1Cl", "note": "[Example 39, 5-Chloro-N-(2-chloro-3-cyanophenyl)-N-cyclopropyl-4-[5-(hydroxymethyl)-2,4-dioxo-1,2-dihydrothieno[3,4-d]pyrimidine-3(4H)-yl]thiophene-2-carboxamide]", "values": [{"measurement": "inhibition at 0.01 µM", "result": 101, "unit": "%"}]}, {"smiles": "N#Cc1cccc(N(C(=O)c2cc(-n3c(=O)[nH]c4csc(C(=O)O)c4c3=O)c(Cl)s2)C2CC2)c1Cl", "note": "[Example 40, 3-(2-Chloro-5-{[(2-chloro-3-cyanophenyl)(cyclopropyl)amino]carbonyl}-3-thienyl)-2,4-dioxo-1,2,3,4-tetrahydrothieno[3,4-d]pyrimidine-5-carboxylic acid]", "values": [{"measurement": "inhibition at 0.01 µM", "result": 101, "unit": "%"}]}, {"smiles": "O=C(O)c1csc2[nH]c(=O)n(-c3cccc(S(=O)(=O)N4CCCc5ccccc54)c3)c(=O)c12", "note": "[Example 34 (3), 3-[3-(3,4-Dihydroquinolin-1(2H)-ylsulfonyl)phenyl]-2,4-dioxo-1,2,3,4-tetrahydrothieno[2,3-d]pyrimidine-5-carboxylic acid]", "values": [{"measurement": "inhibition at 0.01 µM", "result": 100, "unit": "%"}]}, {"smiles": "COC(=O)c1scc2[nH]c(=O)n(-c3cc(C(=O)N(c4cccc(Br)c4Cl)C4CC4)sc3Cl)c(=O)c12", "note": "[Example 37, Methyl 3-(5-{[(3-bromo-2-chlorophenyl)(cyclopropyl)amino]carbonyl}-2-chloro-3-thienyl)-2,4-dioxo-1,2,3,4-tetrahydrothieno[3,4-d]pyrimidine-5-carboxylate]", "values": [{"measurement": "inhibition at 0.01 µM", "result": 100, "unit": "%"}]}, {"smiles": "Cc1nnc(-c2scc3[nH]c(=O)n(-c4cccc(S(=O)(=O)N5CCCc6ccccc65)c4)c(=O)c23)o1", "note": "[Example 12, 3-[3-(3,4-dihydroquinolin-1(2H)-ylsulfonyl)phenyl]-5-(5-methyl-1,3,4-oxadiazol-2-yl)thieno[3,4-d]pyrimidin-2,4(1H,3H)-dione]", "values": [{"measurement": "inhibition at 0.01 µM", "result": 72, "unit": "%"}]}, {"smiles": "O=C(O)c1scc2[nH]c(=O)n(-c3cc(S(=O)(=O)N4CCCCc5sccc54)sc3Cl)c(=O)c12", "note": "[Example 6, 3-[2-Chloro-5-(5,6,7,8-tetrahydro-4H-thieno[3,2-b]azepin-4-ylsulfonyl)-3-thienyl]-2,4-dioxo-1,2,3,4-tetrahydrothieno[3,4-d]pyrimidine-5-carboxylic acid]", "values": [{"measurement": "inhibition at 0.01 µM", "result": 97, "unit": "%"}]}, {"smiles": "CCN(C(=O)c1csc(-n2c(=O)[nH]c3csc(C(=O)O)c3c2=O)c1)c1ccccc1", "note": "[Example 33-2, 3-(4-{[Ethyl(phenyl)amino]carbonyl}-2-thienyl)-2,4-dioxo-1,2,3,4-tetrahydrothieno[3,4-d]pyrimidine-5-carboxylic acid]", "values": [{"measurement": "inhibition at 0.01 µM", "result": 85, "unit": "%"}]}, {"smiles": "CNC(=O)c1scc2[nH]c(=O)n(-c3cc(S(=O)(=O)N4CCCc5ccccc54)ccc3Cl)c(=O)c12", "note": "[Example 16, 3-[2-Chloro-5-(3,4-dihydroquinolin-1(2H)-ylsulfonyl)phenyl]-N-methyl-2,4-dioxo-1,2,3,4-tetrahydrothieno[3,4-d]pyrimidine-5-carboxamide]", "values": [{"measurement": "inhibition at 0.01 µM", "result": 96, "unit": "%"}]}, {"smiles": "O=c1[nH]c2ccsc2c(=O)n1-c1cccc(S(=O)(=O)N2CCCc3ccccc32)c1", "note": "[Example 1, 3-[3-(3,4-Dihydroquinolin-1(2H)-ylsulfonyl)phenyl]thieno[3,2-d]pyrimidin-2,4(1H,3H)-dione]", "values": [{"measurement": "inhibition at 0.01 µM", "result": 86, "unit": "%"}]}, {"smiles": "COC(=O)c1scc2[nH]c(=O)n(-c3cc(S(=O)(=O)N4CCCc5ccccc54)cs3)c(=O)c12", "note": "[Example 30, Methyl 3-[4-(3,4-dihydroquinolin-1(2H)-ylsulfonyl)-2-thienyl]-2,4-dioxo-1,2,3,4-tetrahydrothieno[3,4-d]pyrimidine-5-carboxylate]", "values": [{"measurement": "inhibition at 0.01 µM", "result": 110, "unit": "%"}]}]}
